Measured values published in the kinase profiling compilation of Christmann-Franck et al. (2016).
Values joined by “and” are separate entries in the source; they are usually repeats but may differ in a detail not shown here. Identical values can stand only once.

What was measured:
Assay in all cases: radiometric filter-binding kinase assay, Kinase HotSpot
Conditions in all cases: compound 0.5 µM; ATP 10 µM
LYN (human) = LYN (human) (UniProt P07948)
IGF1R (human) = IGF1R (human) (UniProt P08069)
EPHA8 (human) = EPHA8 (human) (UniProt P29322)
CAMK1D (human) = CAMK1D (human) (UniProt Q8IU85)
PDGFRB (human) = PDGFRB (human) (UniProt P09619)
RPS6KB2 (human) = RPS6KB2 (human) (UniProt Q9UBS0)
CDK2 CCNE1 (human) = CDK2 CCNE1 (human) (UniProt P24941+P24864)
RAF1 (human) = RAF1 (human) (UniProt P04049)
IKBKB (human) = IKBKB (human) (UniProt O14920)
FES (human) = FES (human) (UniProt P07332)
CAMK1G (human) = CAMK1G (human) (UniProt Q96NX5)
MAP3K3 (human) = MAP3K3 (human) (UniProt Q99759)
NTRK1 (human) = NTRK1 (human) (UniProt P04629)
FYN (human) = FYN (human) (UniProt P06241)
TBK1 (human) = TBK1 (human) (UniProt Q9UHD2)
CSNK1G1 (human) = CSNK1G1 (human) (UniProt Q9HCP0)
STK4 (human) = STK4 (human) (UniProt Q13043)
HIPK2 (human) = HIPK2 (human) (UniProt Q9H2X6)
PLK3 (human) = PLK3 (human) (UniProt Q9H4B4)
ZAP70 (human) = ZAP70 (human) (UniProt P43403)
EPHA5 (human) = EPHA5 (human) (UniProt P54756)
SGK3 (human) = SGK3 (human) (UniProt Q96BR1)
TSSK1B (human) = TSSK1B (human) (UniProt Q9BXA7)
MYLK (human) = MYLK (human) (UniProt Q15746)
MAPK12 (human) = MAPK12 (human) (UniProt P53778)
STK24 (human) = STK24 (human) (UniProt Q9Y6E0)
CSNK1D (human) = CSNK1D (human) (UniProt P48730)
MAPK14 (human) = MAPK14 (human) (UniProt Q16539)
STK16 (human) = STK16 (human) (UniProt O75716)
CAMK2B (human) = CAMK2B (human) (UniProt Q13554)
EPHB3 (human) = EPHB3 (human) (UniProt P54753)
MAP4K4 (human) = MAP4K4 (human) (UniProt O95819)
CSNK1G3 (human) = CSNK1G3 (human) (UniProt Q9Y6M4)
FER (human) = FER (human) (UniProt P16591)
CAMK2D (human) = CAMK2D (human) (UniProt Q13557)
MAPKAPK5 (human) = MAPKAPK5 (human) (UniProt Q8IW41)
WEE1 (human) = WEE1 (human) (UniProt P30291)
CDK2 CCNA2 (human) = CDK2 CCNA2 (human) (UniProt P24941+P20248)
CDC42BPB (human) = CDC42BPB (human) (UniProt Q9Y5S2)
FGFR3 (human) = FGFR3 (human) (UniProt P22607)
TTK (human) = TTK (human) (UniProt P33981)
Sequence of TTK (human) (P33981 whole entry, looked up): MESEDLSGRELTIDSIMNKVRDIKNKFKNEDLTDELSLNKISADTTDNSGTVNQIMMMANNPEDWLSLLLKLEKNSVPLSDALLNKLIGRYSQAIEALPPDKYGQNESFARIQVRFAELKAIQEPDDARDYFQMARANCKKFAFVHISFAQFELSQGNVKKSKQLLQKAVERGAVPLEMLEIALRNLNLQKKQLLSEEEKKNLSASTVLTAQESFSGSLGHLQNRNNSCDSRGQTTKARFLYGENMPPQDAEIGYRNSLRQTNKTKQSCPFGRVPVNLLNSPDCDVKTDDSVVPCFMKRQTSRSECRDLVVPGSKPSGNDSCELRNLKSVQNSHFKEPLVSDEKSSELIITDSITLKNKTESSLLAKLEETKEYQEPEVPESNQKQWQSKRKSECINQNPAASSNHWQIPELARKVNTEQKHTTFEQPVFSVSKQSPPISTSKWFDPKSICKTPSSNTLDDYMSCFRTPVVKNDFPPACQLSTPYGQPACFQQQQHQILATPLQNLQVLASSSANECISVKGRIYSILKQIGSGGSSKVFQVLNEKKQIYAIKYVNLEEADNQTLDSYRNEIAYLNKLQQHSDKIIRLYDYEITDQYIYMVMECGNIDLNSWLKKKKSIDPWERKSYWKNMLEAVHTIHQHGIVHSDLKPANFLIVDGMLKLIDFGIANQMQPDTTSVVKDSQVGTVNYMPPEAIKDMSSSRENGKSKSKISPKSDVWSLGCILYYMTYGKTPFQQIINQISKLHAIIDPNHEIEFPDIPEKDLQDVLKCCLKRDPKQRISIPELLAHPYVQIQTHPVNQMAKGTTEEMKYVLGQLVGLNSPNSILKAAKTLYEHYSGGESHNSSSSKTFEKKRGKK

Sequence of SGK3 (human) (Q96BR1 whole entry, looked up): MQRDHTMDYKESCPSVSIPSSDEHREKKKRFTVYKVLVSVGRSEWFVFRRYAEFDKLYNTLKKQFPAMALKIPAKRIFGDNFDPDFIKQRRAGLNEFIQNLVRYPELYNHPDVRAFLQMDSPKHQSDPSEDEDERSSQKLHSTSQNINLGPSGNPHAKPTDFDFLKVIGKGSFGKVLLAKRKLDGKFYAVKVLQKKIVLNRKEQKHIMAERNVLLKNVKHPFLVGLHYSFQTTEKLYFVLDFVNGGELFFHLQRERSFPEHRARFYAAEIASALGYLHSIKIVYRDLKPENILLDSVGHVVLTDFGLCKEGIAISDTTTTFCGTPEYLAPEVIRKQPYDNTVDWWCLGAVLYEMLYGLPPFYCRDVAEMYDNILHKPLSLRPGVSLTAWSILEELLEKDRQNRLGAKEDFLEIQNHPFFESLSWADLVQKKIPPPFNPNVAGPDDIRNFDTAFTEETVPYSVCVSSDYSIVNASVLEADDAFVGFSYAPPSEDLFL
Sequence of CDK2 CCNA2 (human) (P20248 whole entry, looked up, other chains not shown): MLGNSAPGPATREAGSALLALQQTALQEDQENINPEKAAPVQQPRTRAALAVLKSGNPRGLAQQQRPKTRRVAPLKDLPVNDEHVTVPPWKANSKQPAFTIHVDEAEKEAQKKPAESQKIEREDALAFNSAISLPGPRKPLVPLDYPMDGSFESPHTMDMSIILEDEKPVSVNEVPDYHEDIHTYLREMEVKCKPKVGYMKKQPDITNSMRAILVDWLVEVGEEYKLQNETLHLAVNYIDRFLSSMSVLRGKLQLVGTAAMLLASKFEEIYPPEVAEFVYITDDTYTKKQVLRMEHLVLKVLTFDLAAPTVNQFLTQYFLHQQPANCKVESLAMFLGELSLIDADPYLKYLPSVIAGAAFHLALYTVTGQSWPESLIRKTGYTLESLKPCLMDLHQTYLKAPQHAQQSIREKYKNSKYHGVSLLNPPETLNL
Sequence of ZAP70 (human) (P43403 whole entry, looked up): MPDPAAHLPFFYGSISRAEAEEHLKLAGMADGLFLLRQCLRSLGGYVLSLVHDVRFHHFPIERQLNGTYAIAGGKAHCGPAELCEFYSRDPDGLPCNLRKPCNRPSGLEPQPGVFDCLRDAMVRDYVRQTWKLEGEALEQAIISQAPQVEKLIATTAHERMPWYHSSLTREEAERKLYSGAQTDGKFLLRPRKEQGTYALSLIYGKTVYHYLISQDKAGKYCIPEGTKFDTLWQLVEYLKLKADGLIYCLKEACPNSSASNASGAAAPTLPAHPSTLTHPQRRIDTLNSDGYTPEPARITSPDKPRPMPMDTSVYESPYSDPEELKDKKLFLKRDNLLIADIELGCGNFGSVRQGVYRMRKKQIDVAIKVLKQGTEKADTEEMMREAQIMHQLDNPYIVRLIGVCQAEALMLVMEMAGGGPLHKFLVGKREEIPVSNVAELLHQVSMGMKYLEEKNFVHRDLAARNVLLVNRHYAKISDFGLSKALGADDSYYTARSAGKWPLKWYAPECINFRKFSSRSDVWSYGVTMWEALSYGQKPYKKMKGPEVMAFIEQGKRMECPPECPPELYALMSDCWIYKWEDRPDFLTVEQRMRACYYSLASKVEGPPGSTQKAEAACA
Sequence of MYLK (human) (Q15746 whole entry, looked up): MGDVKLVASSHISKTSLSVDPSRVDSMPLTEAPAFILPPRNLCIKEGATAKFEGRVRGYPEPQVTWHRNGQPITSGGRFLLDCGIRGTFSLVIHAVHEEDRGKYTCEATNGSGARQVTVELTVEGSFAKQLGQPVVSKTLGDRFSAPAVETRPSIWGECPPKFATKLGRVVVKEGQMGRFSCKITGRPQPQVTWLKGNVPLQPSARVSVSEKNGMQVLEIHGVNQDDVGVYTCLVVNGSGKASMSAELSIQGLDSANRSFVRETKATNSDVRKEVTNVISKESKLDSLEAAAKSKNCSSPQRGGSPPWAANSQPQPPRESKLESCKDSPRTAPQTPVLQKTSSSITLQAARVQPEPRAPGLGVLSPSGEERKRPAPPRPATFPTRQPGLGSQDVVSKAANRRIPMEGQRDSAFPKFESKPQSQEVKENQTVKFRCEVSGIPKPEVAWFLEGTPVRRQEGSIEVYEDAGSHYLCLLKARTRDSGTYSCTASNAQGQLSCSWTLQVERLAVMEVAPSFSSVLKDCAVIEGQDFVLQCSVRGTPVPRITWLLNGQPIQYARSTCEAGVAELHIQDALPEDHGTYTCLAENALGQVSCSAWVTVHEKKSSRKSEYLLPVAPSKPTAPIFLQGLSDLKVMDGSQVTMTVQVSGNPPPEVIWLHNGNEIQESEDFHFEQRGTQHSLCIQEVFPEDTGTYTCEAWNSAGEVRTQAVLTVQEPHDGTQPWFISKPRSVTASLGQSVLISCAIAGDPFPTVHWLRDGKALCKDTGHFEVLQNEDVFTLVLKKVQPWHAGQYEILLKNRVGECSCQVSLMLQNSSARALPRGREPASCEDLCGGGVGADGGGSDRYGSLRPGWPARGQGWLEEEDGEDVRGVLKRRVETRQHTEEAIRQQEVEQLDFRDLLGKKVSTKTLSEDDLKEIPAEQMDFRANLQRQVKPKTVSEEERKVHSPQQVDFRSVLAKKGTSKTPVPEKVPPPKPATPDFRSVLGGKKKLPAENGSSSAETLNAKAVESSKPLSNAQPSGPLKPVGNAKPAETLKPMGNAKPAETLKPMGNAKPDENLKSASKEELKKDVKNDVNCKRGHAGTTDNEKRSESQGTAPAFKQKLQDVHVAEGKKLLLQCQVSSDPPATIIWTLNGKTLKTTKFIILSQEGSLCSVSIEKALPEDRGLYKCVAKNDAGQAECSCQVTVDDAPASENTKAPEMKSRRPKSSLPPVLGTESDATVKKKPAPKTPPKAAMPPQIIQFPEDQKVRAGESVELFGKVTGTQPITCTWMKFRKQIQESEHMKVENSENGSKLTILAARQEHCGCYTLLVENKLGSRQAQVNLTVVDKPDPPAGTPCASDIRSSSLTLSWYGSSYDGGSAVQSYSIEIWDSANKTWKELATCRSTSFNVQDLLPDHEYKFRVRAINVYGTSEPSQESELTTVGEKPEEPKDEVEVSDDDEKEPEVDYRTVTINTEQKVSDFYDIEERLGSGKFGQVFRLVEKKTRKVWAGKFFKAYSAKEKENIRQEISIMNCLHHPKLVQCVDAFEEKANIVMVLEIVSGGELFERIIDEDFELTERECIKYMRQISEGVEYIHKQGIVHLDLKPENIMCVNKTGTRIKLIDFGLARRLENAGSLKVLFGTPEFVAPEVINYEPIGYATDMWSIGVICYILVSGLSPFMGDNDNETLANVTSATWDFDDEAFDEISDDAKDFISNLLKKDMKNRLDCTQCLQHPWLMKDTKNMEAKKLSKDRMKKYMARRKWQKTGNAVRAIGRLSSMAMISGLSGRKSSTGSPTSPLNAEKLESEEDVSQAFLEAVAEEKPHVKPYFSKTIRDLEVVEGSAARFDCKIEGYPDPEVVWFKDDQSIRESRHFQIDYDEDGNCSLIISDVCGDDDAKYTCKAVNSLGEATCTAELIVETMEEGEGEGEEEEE
Sequence of FYN (human) (P06241 whole entry, looked up): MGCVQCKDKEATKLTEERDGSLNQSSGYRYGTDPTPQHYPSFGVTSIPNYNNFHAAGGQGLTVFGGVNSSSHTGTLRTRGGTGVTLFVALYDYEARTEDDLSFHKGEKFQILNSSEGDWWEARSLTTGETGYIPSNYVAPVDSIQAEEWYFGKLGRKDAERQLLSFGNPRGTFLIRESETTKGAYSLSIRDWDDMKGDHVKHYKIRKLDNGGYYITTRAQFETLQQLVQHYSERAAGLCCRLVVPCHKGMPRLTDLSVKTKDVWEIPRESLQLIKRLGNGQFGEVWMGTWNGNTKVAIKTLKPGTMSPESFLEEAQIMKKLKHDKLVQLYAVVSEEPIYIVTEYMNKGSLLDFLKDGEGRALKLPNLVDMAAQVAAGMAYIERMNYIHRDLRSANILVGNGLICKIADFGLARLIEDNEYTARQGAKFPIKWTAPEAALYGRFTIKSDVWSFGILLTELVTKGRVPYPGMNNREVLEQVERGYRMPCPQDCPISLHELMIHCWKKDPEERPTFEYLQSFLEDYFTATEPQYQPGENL

Structure (SMILES): CCN(CC)C(=O)c1ccc(Nc2nc(OCC3CCCCC3)c3nc[nH]c3n2)cc1
- residual activity (LYN (human)): 78.2% and 89.7%
- residual activity (IGF1R (human)): 28.4%
- residual activity (EPHA8 (human)): 92.1%
- residual activity (CAMK1D (human)): 101%
- residual activity (PDGFRB (human)): 54.6%
- residual activity (RPS6KB2 (human)): 102%
- residual activity (CDK2 CCNE1 (human)): 76.5%
- residual activity (RAF1 (human)): 86.3%
- residual activity (IKBKB (human)): 97.3%
- residual activity (FES (human)): 63.2%
- residual activity (CAMK1G (human)): 96.1%
- residual activity (MAP3K3 (human)): 47.3%
- residual activity (NTRK1 (human)): 81.4%
- residual activity (FYN (human)): 62.6%
- residual activity (TBK1 (human)): 25.4%
- residual activity (CSNK1G1 (human)): 68.5%
- residual activity (STK4 (human)): 46.3%
- residual activity (HIPK2 (human)): 92.4%
- residual activity (PLK3 (human)): 98.1%
- residual activity (ZAP70 (human)): 94%
- residual activity (EPHA5 (human)): 95%
- residual activity (SGK3 (human)): 97.2%
- residual activity (TSSK1B (human)): 15.3%
- residual activity (MYLK (human)): 91.6%
- residual activity (MAPK12 (human)): 99.4%
- residual activity (STK24 (human)): 84.5%
- residual activity (CSNK1D (human)): 102%
- residual activity (MAPK14 (human)): 94.7%
- residual activity (STK16 (human)): 33.6%
- residual activity (CAMK2B (human)): 97.6%
- residual activity (EPHB3 (human)): 99.5%
- residual activity (MAP4K4 (human)): 85.9%
- residual activity (CSNK1G3 (human)): 61.7%
- residual activity (FER (human)): 42%
- residual activity (CAMK2D (human)): 94.5%
- residual activity (MAPKAPK5 (human)): 87.8%
- residual activity (WEE1 (human)): 110%
- residual activity (CDK2 CCNA2 (human)): 55.8%
- residual activity (CDC42BPB (human)): 99.3%
- residual activity (FGFR3 (human)): 66.9%
- residual activity (TTK (human)): 47.8%

Structure (SMILES): COc1ccc2c(c[n+](C)c3c4cc5c(cc4ccc23)OCO5)c1OC
- residual activity (LYN (human)): 95.4% and 100%
- residual activity (IGF1R (human)): 93.3%
- residual activity (EPHA8 (human)): 100%
- residual activity (CAMK1D (human)): 105%
- residual activity (PDGFRB (human)): 93.5%
- residual activity (RPS6KB2 (human)): 99.6%
- residual activity (CDK2 CCNE1 (human)): 88.9%
- residual activity (RAF1 (human)): 96.7%
- residual activity (IKBKB (human)): 103%
- residual activity (FES (human)): 108%
- residual activity (CAMK1G (human)): 100%
- residual activity (MAP3K3 (human)): 101%
- residual activity (NTRK1 (human)): 89.8%
- residual activity (FYN (human)): 101%
- residual activity (TBK1 (human)): 96.2%
- residual activity (CSNK1G1 (human)): 106%
- residual activity (STK4 (human)): 98.9%
- residual activity (HIPK2 (human)): 92.6%
- residual activity (PLK3 (human)): 100%
- residual activity (ZAP70 (human)): 101%
- residual activity (EPHA5 (human)): 94.6%
- residual activity (SGK3 (human)): 96%
- residual activity (TSSK1B (human)): 97.3%
- residual activity (MYLK (human)): 100%
- residual activity (MAPK12 (human)): 100%
- residual activity (STK24 (human)): 84.2%
- residual activity (CSNK1D (human)): 92.9%
- residual activity (MAPK14 (human)): 94.1%
- residual activity (STK16 (human)): 102%
- residual activity (CAMK2B (human)): 98.9%
- residual activity (EPHB3 (human)): 95.4%
- residual activity (MAP4K4 (human)): 84.9%
- residual activity (CSNK1G3 (human)): 92.5%
- residual activity (FER (human)): 89.8%
- residual activity (CAMK2D (human)): 90.4%
- residual activity (MAPKAPK5 (human)): 83.5%
- residual activity (WEE1 (human)): 108%
- residual activity (CDK2 CCNA2 (human)): 85.1%
- residual activity (CDC42BPB (human)): 107%
- residual activity (FGFR3 (human)): 99.1%
- residual activity (TTK (human)): 101%

Structure (SMILES): Nc1cccc(-c2cc3c(Oc4cccc(O)c4)ncnc3[nH]2)c1
- residual activity (LYN (human)): 11.1% and 21.4%
- residual activity (IGF1R (human)): 99.5%
- residual activity (EPHA8 (human)): 57.5%
- residual activity (CAMK1D (human)): 97.7%
- residual activity (PDGFRB (human)): 39.9%
- residual activity (RPS6KB2 (human)): 94.7%
- residual activity (CDK2 CCNE1 (human)): 90%
- residual activity (RAF1 (human)): 85.9%
- residual activity (IKBKB (human)): 90.8%
- residual activity (FES (human)): 73.8%
- residual activity (CAMK1G (human)): 99%
- residual activity (MAP3K3 (human)): 96.4%
- residual activity (NTRK1 (human)): 90.5%
- residual activity (FYN (human)): 7.92%
- residual activity (TBK1 (human)): 92.9%
- residual activity (CSNK1G1 (human)): 102%
- residual activity (STK4 (human)): 94.4%
- residual activity (HIPK2 (human)): 100%
- residual activity (PLK3 (human)): 95.7%
- residual activity (ZAP70 (human)): 97.5%
- residual activity (EPHA5 (human)): 41.7%
- residual activity (SGK3 (human)): 117%
- residual activity (TSSK1B (human)): 91.1%
- residual activity (MYLK (human)): 81.7%
- residual activity (MAPK12 (human)): 88.6%
- residual activity (STK24 (human)): 64.2%
- residual activity (CSNK1D (human)): 96.8%
- residual activity (MAPK14 (human)): 98.1%
- residual activity (STK16 (human)): 70.4%
- residual activity (CAMK2B (human)): 101%
- residual activity (EPHB3 (human)): 78.8%
- residual activity (MAP4K4 (human)): 12.5%
- residual activity (CSNK1G3 (human)): 92.6%
- residual activity (FER (human)): 44%
- residual activity (CAMK2D (human)): 99.8%
- residual activity (MAPKAPK5 (human)): 125%
- residual activity (WEE1 (human)): 85.5%
- residual activity (CDK2 CCNA2 (human)): 88.5%
- residual activity (CDC42BPB (human)): 93.5%
- residual activity (FGFR3 (human)): 67.9%
- residual activity (TTK (human)): 104%

Structure (SMILES): O=C(Nc1cccc(Nc2nccc(Nc3cccc(C(F)(F)F)c3)n2)c1)C1CC1
- residual activity (LYN (human)): 91.9% and 99.9%
- residual activity (IGF1R (human)): 95.7%
- residual activity (EPHA8 (human)): 96.3%
- residual activity (CAMK1D (human)): 100%
- residual activity (PDGFRB (human)): 101%
- residual activity (RPS6KB2 (human)): 96%
- residual activity (CDK2 CCNE1 (human)): 85.1%
- residual activity (RAF1 (human)): 98.7%
- residual activity (IKBKB (human)): 97.9%
- residual activity (FES (human)): 94.3%
- residual activity (CAMK1G (human)): 98.8%
- residual activity (MAP3K3 (human)): 97.9%
- residual activity (NTRK1 (human)): 98.1%
- residual activity (FYN (human)): 54.1%
- residual activity (TBK1 (human)): 91%
- residual activity (CSNK1G1 (human)): 105%
- residual activity (STK4 (human)): 83.1%
- residual activity (HIPK2 (human)): 103%
- residual activity (PLK3 (human)): 90.2%
- residual activity (ZAP70 (human)): 126%
- residual activity (EPHA5 (human)): 96.2%
- residual activity (SGK3 (human)): 111%
- residual activity (TSSK1B (human)): 100%
- residual activity (MYLK (human)): 90%
- residual activity (MAPK12 (human)): 99.7%
- residual activity (STK24 (human)): 98.3%
- residual activity (CSNK1D (human)): 111%
- residual activity (MAPK14 (human)): 91.5%
- residual activity (STK16 (human)): 87%
- residual activity (CAMK2B (human)): 102%
- residual activity (EPHB3 (human)): 100%
- residual activity (MAP4K4 (human)): 92.4%
- residual activity (CSNK1G3 (human)): 93.5%
- residual activity (FER (human)): 93%
- residual activity (CAMK2D (human)): 93.5%
- residual activity (MAPKAPK5 (human)): 91.9%
- residual activity (WEE1 (human)): 95.6%
- residual activity (CDK2 CCNA2 (human)): 98.2%
- residual activity (CDC42BPB (human)): 96.6%
- residual activity (FGFR3 (human)): 95%
- residual activity (TTK (human)): 92.1%

Structure (SMILES): Cc1ccc(S(=O)(=O)/C=C/C#N)cc1
- residual activity (LYN (human)): 101% and 108%
- residual activity (IGF1R (human)): 93.5%
- residual activity (EPHA8 (human)): 96.8%
- residual activity (CAMK1D (human)): 108%
- residual activity (PDGFRB (human)): 103%
- residual activity (RPS6KB2 (human)): 109%
- residual activity (CDK2 CCNE1 (human)): 89.2%
- residual activity (RAF1 (human)): 104%
- residual activity (IKBKB (human)): 110%
- residual activity (FES (human)): 100%
- residual activity (CAMK1G (human)): 99.9%
- residual activity (MAP3K3 (human)): 98.1%
- residual activity (NTRK1 (human)): 90.1%
- residual activity (FYN (human)): 95.4%
- residual activity (TBK1 (human)): 83.9%
- residual activity (CSNK1G1 (human)): 101%
- residual activity (STK4 (human)): 94.7%
- residual activity (HIPK2 (human)): 83.9%
- residual activity (PLK3 (human)): 97.1%
- residual activity (ZAP70 (human)): 97.5%
- residual activity (EPHA5 (human)): 111%
- residual activity (SGK3 (human)): 108%
- residual activity (TSSK1B (human)): 97.4%
- residual activity (MYLK (human)): 93.9%
- residual activity (MAPK12 (human)): 90.5%
- residual activity (STK24 (human)): 89.3%
- residual activity (CSNK1D (human)): 103%
- residual activity (MAPK14 (human)): 97.4%
- residual activity (STK16 (human)): 88.3%
- residual activity (CAMK2B (human)): 106%
- residual activity (EPHB3 (human)): 104%
- residual activity (MAP4K4 (human)): 106%
- residual activity (CSNK1G3 (human)): 88.3%
- residual activity (FER (human)): 104%
- residual activity (CAMK2D (human)): 102%
- residual activity (MAPKAPK5 (human)): 88.9%
- residual activity (WEE1 (human)): 96.4%
- residual activity (CDK2 CCNA2 (human)): 98%
- residual activity (CDC42BPB (human)): 96.4%
- residual activity (FGFR3 (human)): 95.2%
- residual activity (TTK (human)): 107%
